According to article doi:10.1101/2020.06.11.145995v1 (biorxiv, 2020):
Like-named read-outs stand apart in the source and are kept apart here.

Tests used:
Test in all cases: biochemical
FLT1 = FLT1 (Homo sapiens, UniProt P17948)
FRK = FRK (Homo sapiens, UniProt P42685)
MERTK = MERTK (Homo sapiens, UniProt Q12866)
CTK = CTK (Homo sapiens, UniProt P42679)
MINK = MINK (Homo sapiens, UniProt Q8N4C8)
AKT3 = AKT3 (Homo sapiens, UniProt Q9Y243)
NUAK1 = NUAK1 (Homo sapiens, UniProt O60285)
KIT(D816V) = KIT(D816V) (Homo sapiens, UniProt P10721, D816V)
MYO3A = MYO3A (Homo sapiens, UniProt Q8NEV4)
GRK7 = GRK7 (Homo sapiens, UniProt Q8WTQ7)
IRAK4 = IRAK4 (Homo sapiens, UniProt Q9NWZ3)
HIPK4 = HIPK4 (Homo sapiens, UniProt Q8NE63)
IKK-epsilon = IKK-epsilon (Homo sapiens, UniProt Q14164)
ALK = ALK (Homo sapiens, UniProt Q9UM73)
DLK = DLK (Homo sapiens, UniProt Q12852)
IGF1R = IGF1R (Homo sapiens, UniProt P08069)
MAP4K3 = MAP4K3 (Homo sapiens, UniProt Q8IVH8)
MAP3K1 = MAP3K1 (Homo sapiens, UniProt Q13233)
MEK1 = MEK1 (Homo sapiens, UniProt Q02750)
MEK2 = MEK2 (Homo sapiens, UniProt P36507)
CDC2L5 = CDC2L5 (Homo sapiens, UniProt Q14004)
FER = FER (Homo sapiens, UniProt P16591)
MARK4 = MARK4 (Homo sapiens, UniProt Q96L34)
IKK-beta = IKK-beta (Homo sapiens, UniProt O14920)
MKNK1 = MKNK1 (Homo sapiens, UniProt Q9BUB5)
CHEK2 = CHEK2 (Homo sapiens, UniProt O96017)
HIPK1 = HIPK1 (Homo sapiens, UniProt Q86Z02)
FLT3(D835H) = FLT3(D835H) (Homo sapiens, UniProt P36888, D835H)
LATS1 = LATS1 (Homo sapiens, UniProt O95835)
CLK4 = CLK4 (Homo sapiens, UniProt Q9HAZ1)
[1] = read-out: CPT-1-70-1 (1uM) % control
[2] = read-out: HYJ-2-002-1 (1uM) % control

Chain of MAP4K3 (Q8IVH8 whole entry): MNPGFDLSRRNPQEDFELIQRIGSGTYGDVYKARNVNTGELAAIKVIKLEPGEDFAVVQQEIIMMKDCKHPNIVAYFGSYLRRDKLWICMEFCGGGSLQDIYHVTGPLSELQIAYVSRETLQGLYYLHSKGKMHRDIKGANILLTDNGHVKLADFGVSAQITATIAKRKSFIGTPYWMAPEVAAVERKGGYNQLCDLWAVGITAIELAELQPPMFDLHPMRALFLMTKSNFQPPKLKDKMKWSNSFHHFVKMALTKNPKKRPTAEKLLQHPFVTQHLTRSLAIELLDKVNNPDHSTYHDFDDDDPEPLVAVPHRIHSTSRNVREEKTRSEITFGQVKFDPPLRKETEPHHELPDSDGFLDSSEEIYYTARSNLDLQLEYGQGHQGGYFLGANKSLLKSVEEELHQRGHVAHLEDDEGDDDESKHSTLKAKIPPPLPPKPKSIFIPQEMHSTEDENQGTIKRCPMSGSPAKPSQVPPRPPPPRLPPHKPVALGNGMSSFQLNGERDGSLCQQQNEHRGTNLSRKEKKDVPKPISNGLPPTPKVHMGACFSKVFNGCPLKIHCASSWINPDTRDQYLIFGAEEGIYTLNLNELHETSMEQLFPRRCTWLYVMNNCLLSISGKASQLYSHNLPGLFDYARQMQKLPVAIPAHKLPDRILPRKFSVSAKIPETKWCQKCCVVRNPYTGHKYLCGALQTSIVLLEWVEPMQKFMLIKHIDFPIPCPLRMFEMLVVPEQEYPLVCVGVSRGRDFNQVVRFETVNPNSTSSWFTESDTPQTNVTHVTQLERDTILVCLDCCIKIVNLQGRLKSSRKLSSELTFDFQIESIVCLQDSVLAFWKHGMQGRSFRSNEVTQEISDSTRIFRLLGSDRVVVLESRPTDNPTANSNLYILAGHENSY
Chain of IRAK4 (Q9NWZ3 whole entry): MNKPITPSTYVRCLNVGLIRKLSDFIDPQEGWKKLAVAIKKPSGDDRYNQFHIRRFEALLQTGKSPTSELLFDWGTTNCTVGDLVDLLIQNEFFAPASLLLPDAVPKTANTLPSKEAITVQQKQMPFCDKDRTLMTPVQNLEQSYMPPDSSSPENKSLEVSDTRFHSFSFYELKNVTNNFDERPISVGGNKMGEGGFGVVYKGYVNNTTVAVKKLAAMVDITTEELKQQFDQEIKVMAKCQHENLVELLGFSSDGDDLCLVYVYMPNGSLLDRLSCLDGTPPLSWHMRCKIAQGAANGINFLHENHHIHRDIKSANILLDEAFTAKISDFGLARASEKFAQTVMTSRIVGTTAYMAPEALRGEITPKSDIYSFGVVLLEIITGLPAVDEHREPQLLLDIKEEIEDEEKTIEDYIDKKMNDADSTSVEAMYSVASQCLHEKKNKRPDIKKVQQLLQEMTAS
Chain of MAP3K1 (Q13233 whole entry): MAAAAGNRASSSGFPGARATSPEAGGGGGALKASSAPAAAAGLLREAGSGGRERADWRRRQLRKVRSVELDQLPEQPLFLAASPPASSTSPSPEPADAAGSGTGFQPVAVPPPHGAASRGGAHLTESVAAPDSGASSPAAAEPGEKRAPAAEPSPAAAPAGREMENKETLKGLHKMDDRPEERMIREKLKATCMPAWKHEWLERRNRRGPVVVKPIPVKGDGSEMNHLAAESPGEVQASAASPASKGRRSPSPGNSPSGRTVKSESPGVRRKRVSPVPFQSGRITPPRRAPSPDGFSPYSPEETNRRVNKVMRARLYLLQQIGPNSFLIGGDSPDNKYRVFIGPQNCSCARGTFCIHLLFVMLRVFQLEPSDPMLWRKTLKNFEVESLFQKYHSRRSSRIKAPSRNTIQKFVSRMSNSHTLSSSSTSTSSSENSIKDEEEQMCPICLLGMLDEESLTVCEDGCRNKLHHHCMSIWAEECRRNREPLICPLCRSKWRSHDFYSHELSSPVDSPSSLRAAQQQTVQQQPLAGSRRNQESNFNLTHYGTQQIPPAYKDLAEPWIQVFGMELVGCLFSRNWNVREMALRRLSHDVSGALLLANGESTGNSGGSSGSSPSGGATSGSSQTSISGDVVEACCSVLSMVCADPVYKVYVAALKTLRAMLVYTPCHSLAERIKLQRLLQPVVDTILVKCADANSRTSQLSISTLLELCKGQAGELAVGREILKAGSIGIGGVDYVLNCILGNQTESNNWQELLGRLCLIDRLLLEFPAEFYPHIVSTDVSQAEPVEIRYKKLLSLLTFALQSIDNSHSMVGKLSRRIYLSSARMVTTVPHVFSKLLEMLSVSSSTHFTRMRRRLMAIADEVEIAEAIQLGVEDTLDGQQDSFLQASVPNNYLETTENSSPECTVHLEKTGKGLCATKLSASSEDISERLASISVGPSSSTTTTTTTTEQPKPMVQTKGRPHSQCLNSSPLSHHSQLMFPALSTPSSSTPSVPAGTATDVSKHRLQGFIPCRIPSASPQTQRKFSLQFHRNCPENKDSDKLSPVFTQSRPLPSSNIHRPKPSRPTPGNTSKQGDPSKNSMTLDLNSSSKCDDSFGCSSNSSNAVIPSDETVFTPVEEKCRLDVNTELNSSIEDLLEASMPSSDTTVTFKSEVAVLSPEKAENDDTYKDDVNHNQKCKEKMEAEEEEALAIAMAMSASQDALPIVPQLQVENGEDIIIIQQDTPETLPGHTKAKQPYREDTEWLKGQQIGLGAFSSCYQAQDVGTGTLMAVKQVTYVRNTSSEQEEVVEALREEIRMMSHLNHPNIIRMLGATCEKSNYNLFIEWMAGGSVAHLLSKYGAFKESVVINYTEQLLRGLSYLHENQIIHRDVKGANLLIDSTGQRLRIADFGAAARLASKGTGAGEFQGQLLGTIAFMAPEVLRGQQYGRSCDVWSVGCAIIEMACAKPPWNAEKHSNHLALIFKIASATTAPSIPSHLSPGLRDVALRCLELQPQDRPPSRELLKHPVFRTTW
Chain of CTK (P42679 whole entry): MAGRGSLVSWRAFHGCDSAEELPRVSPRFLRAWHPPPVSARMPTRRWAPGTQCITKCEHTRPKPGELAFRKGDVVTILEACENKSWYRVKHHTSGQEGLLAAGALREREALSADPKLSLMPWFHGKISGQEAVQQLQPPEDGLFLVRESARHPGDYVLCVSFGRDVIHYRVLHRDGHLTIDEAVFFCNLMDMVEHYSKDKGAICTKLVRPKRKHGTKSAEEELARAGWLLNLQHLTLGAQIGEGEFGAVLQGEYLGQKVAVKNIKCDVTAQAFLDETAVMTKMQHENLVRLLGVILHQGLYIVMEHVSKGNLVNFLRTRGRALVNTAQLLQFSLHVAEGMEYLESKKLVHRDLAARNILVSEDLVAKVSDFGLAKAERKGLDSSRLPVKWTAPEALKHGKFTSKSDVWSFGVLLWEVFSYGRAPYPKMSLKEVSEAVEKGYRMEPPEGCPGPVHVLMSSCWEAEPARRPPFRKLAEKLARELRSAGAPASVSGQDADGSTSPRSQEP
Chain of HIPK1 (Q86Z02 whole entry): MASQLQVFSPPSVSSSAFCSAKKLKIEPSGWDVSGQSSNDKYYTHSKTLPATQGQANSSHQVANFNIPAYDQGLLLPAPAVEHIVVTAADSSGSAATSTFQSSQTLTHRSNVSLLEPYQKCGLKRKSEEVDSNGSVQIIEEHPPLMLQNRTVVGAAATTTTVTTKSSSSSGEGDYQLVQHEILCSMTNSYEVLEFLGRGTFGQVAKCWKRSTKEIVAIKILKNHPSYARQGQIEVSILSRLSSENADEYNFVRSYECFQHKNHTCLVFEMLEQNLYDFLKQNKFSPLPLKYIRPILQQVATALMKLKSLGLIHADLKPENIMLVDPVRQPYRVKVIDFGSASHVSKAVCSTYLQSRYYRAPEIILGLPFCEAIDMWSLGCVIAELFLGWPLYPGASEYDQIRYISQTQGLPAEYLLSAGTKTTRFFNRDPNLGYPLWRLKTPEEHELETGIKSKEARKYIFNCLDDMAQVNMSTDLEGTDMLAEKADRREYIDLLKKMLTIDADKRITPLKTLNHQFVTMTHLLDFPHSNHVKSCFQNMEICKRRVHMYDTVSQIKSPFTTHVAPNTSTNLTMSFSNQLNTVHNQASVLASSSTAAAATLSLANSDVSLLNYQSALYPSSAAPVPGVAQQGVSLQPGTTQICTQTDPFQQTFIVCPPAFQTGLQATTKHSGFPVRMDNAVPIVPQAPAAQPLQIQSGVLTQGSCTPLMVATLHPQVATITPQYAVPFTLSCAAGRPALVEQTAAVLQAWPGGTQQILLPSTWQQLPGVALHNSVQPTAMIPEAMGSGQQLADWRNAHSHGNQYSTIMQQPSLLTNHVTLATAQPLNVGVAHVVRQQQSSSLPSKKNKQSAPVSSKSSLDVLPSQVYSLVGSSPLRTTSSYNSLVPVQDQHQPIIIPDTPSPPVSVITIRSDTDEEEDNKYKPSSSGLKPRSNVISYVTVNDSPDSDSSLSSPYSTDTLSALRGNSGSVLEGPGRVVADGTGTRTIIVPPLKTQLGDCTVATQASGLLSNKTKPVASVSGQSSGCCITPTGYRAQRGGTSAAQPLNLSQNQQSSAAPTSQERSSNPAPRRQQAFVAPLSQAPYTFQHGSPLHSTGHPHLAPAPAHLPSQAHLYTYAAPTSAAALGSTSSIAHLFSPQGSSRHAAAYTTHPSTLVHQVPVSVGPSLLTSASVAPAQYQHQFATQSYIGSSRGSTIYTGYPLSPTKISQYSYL
Chain of MEK2 (P36507 whole entry): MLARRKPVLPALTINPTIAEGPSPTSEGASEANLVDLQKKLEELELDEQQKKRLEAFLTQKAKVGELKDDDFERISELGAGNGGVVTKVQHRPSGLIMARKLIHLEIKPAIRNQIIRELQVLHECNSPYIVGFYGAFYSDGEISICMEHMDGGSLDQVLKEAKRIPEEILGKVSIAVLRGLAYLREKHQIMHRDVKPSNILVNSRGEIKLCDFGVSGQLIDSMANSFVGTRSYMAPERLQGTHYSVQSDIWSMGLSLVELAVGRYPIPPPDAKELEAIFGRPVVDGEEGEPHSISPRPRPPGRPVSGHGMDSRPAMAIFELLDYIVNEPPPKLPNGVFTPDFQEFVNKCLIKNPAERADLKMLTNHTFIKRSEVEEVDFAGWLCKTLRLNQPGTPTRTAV

Molecule `CN1CCN(c2ccc(Nc3nc(Oc4ccc(NC(=O)CCl)cc4)c4cc[nH]c4n3)cc2)CC1` [CPT1-70-1] has a remaining activity at 1 µM (FLT1; [1]) of 54%, a remaining activity at 1 µM (FRK; [1]) of 100% and a remaining activity at 1 µM (MERTK; [1]) of 70%. For the same molecule, the remaining activity at 1 µM (CTK; [1]) was 100%, the remaining activity at 1 µM (MINK; [1]) was 41% and the remaining activity at 1 µM (AKT3; [1]) was 100%. It also gave a remaining activity at 1 µM (NUAK1; [1]) of 9.3%, a remaining activity at 1 µM (KIT(D816V); [1]) of 60% and a remaining activity at 1 µM (MYO3A; [1]) of 88%. It also gave a remaining activity at 1 µM (GRK7; [1]) of 100%, a remaining activity at 1 µM (IRAK4; [1]) of 94% and a remaining activity at 1 µM (HIPK4; [1]) of 74%. It also gave a remaining activity at 1 µM (IKK-epsilon; [1]) of 100%, a remaining activity at 1 µM (ALK; [1]) of 38% and a remaining activity at 1 µM (DLK; [1]) of 78%. For the same molecule, the remaining activity at 1 µM (IGF1R; [1]) was 62%, the remaining activity at 1 µM (MAP4K3; [1]) was 23% and the remaining activity at 1 µM (MAP3K1; [1]) was 100%. The remaining activity at 1 µM (MEK1; [1]) was 51%, the remaining activity at 1 µM (MEK2; [1]) was 19% and the remaining activity at 1 µM (CDC2L5; [1]) was 91%. It also gave a remaining activity at 1 µM (FER; [1]) of 45%, a remaining activity at 1 µM (MARK4; [1]) of 1.8% and a remaining activity at 1 µM (IKK-beta; [1]) of 100%. The remaining activity at 1 µM (MKNK1; [1]) was 100%, the remaining activity at 1 µM (CHEK2; [1]) was 38% and the remaining activity at 1 µM (HIPK1; [1]) was 52%. The remaining activity at 1 µM (FLT3(D835H); [1]) was 10%, the remaining activity at 1 µM (LATS1; [1]) was 77% and the remaining activity at 1 µM (CLK4; [1]) was 6.5%.
`CCN1CCN(Cc2ccc(NC(=O)c3ccc(C)c(CCc4cnc5[nH]ccc5c4OC)c3)cc2C(F)(F)F)CC1` [HYJ-2-002-1] gave a remaining activity at 1 µM (FLT1; [2]) of 10%, a remaining activity at 1 µM (FRK; [2]) of 1.4% and a remaining activity at 1 µM (MERTK; [2]) of 30%. The remaining activity at 1 µM (CTK; [2]) was 91%, the remaining activity at 1 µM (MINK; [2]) was 33% and the remaining activity at 1 µM (AKT3; [2]) was 100%. The remaining activity at 1 µM (NUAK1; [2]) was 65%, the remaining activity at 1 µM (KIT(D816V); [2]) was 9.2% and the remaining activity at 1 µM (MYO3A; [2]) was 59%. It also gave a remaining activity at 1 µM (GRK7; [2]) of 100%, a remaining activity at 1 µM (IRAK4; [2]) of 94% and a remaining activity at 1 µM (HIPK4; [2]) of 2.6%. For the same molecule, the remaining activity at 1 µM (IKK-epsilon; [2]) was 94%, the remaining activity at 1 µM (ALK; [2]) was 75% and the remaining activity at 1 µM (DLK; [2]) was 86%. For the same molecule, the remaining activity at 1 µM (IGF1R; [2]) was 100%, the remaining activity at 1 µM (MAP4K3; [2]) was 40% and the remaining activity at 1 µM (MAP3K1; [2]) was 83%. For the same molecule, the remaining activity at 1 µM (MEK1; [2]) was 100%, the remaining activity at 1 µM (MEK2; [2]) was 22% and the remaining activity at 1 µM (CDC2L5; [2]) was 100%. The remaining activity at 1 µM (FER; [2]) was 56%, the remaining activity at 1 µM (MARK4; [2]) was 94% and the remaining activity at 1 µM (IKK-beta; [2]) was 0.3%. The remaining activity at 1 µM (MKNK1; [2]) was 84%, the remaining activity at 1 µM (CHEK2; [2]) was 63% and the remaining activity at 1 µM (HIPK1; [2]) was 51%. The remaining activity at 1 µM (FLT3(D835H); [2]) was 7.3%, the remaining activity at 1 µM (LATS1; [2]) was 100% and the remaining activity at 1 µM (CLK4; [2]) was 69%.
